Source: ChEMBL document CHEMBL5728856, “Anilinopyrimidines as haematopoietic progenitor kinase 1 (HPK1) inhibitors” (2021)

Target: Mitogen-activated protein kinase kinase kinase kinase 1 (Homo sapiens, UniProt Q92918)
Assay: Enzymatic Activity Assay: The enzymatic activity of Wild Type HPK1 (MAP4K1) Kinase was measured in the presence or absence of an inhibitor compound of the present disclosure by preparation of a reaction mixture containing a fluorescein tagged peptide (2 micromolar final concentration), ATP (Adenosine Triphosphate, 500 micromolar final concentration) and Wild Type kinase (6 nM final concentration) in a buffer system comprising 50 mM HEPES (Buffer), 3 mM MgCl2, 5% w/v Trehalose, 0.01% Brij 35 (Detergent), 0.1% Pluronic F127 (Surfactant), 0.1 mM EDTA (Ethylenediaminetetraacetic acid), 0.1 mM EGTA (ethylene glycol-bis(β-aminoethyl ether)-N,N,N′,N′-tetraacetic acid) and 1 mM DTT (Dithiothreitol) and at a pH of 7.4. The reactions were quenched by the addition of EDTA to a final concentration of 25 mM. A Caliper EZ reader was used to measure the extent of substrate to product conversion.The peptide substrate used in the HPK1 assay was designed based on the amino acid sequence surrounding serine residue 376 of SLP76-Lymphocyte cytosolic protein 2 (a known intracellular substrate of HPK1). […]
Format: cell-based

Chain of Mitogen-activated protein kinase kinase kinase kinase 1 (Q92918 whole entry): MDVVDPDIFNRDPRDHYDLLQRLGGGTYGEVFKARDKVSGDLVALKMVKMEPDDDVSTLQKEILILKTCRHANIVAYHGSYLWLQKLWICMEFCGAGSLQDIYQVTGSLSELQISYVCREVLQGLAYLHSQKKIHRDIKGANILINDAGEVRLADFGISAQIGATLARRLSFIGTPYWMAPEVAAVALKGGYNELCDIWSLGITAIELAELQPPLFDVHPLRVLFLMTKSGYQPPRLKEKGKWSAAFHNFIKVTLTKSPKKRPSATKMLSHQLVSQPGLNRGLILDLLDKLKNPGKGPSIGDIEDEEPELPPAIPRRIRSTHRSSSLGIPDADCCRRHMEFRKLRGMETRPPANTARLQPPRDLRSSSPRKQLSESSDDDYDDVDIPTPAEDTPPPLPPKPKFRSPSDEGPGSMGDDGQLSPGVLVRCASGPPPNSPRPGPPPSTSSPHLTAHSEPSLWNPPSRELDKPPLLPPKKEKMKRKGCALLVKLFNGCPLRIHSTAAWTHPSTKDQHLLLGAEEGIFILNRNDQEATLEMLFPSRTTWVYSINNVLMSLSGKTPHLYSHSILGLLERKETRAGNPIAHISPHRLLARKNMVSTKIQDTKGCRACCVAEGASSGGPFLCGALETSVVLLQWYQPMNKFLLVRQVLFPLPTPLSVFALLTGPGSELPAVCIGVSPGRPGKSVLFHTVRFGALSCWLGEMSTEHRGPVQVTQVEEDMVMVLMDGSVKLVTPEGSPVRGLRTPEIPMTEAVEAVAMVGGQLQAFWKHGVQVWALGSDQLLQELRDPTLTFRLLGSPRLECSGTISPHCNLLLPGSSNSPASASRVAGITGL

IC50: < 5 nM
Structure (SMILES): CN1CCc2cc(Nc3ncc(Cl)c(Nc4ccccc4P(C)(C)=O)n3)c(Cl)cc2C1
